Measured values from US9896423B2, “Deuterium substituted 1-[2-(2,4-dimethyl-phenylsulfanyl)-phenyl]piperazine compound or derivatives thereof, and pharmaceutical composition and use thereof” (Jiangsu Jibeier Pharmaceutical Co. Ltd., priority 2014, dated 2018).
Values joined by “and” are separate entries in the source; they are usually repeats but may differ in a detail not shown here. Equal entries are not always repeated. Where two headings read alike, the source gives them in different places.

What was measured:
[1] = Pharmacokinetic test in rats, gavage administration; type: in vivo, SD rats; conditions: for bioavailability: n = 6, read-out: F % (absolute bioavailability), Mean ± SD
Description: The preferred compound of the present disclosure was assessed in rats for its pharmacokinetic profile.
SD rats, male and female, weighing 150 to 250 g
Mobile phase: 10 mM ammonium formate aqueous solution:methanol=15:85
The ionization source was electrospray ionization source. The detection mode was positive mode. Multiple reaction monitoring (MRM) was used as the scanning mode. The ion reaction for the quantitative analysis was the following: m/z was 305.2\150.0 for XX, and 256.1\167.1 for diphenhydramine (the internal standard).
XX or YY was orally administered with single dose of 20 mg/kg to six SD rats, one half of which were male and the other half was female. XX or YY was dissolved in 10% hydroxypropyl-β-cyclodextrin. […]
After the blood collection, the tubes were immediately gently turned upside down at least five times to ensure sufficient mixing, and placed on ice. Heparin was added for anticoagulation. The samples were centrifuged at 8000 rpm for 5 min to separate serum from erythrocyte. The serum was transferred with a pipettor to 2 mL polypropylene (PP) tubes, which were marked with the name of the compound and the time points, and stored in a refrigerator at −40° C. before LC-MS analysis. Samples with high concentrations were diluted with rat blank plasma.
2.5 μL of Meth-H2O and 5 μL of the internal standard solution (20 ng/mL, IS) were added to 50 μL of the plasma. Subsequently, 150 μL of methanol was added to the mixture to precipitate protein and the samples were then centrifuged at 13000 rpm for 5 min. The upper organic phase was taken out, filtrated with a 0.22 μM microporous membrane, and 2 μL of the sample was injected for the LC-MS analysis.

[2] = tested on: Male SD rats; assay: Rats swimming test; type: in vivo
Text: The following method is used for testing the antidepression effect of the compound of the present application. ICR mice or SD rats, gavaged for two successive weeks, were subjected to mice swimming test, mice tail suspension test and rats swimming test. See below for details of the tests and results.
Male SD rats weighing 200 to 220 g were used and they were fed with sterilized standard feed. The medicaments were the same as those in the mice tail suspension test, but the dosage administered to rats was half of that to mice.
Drug solution preparation: Since the dosage applied on rats was 1 ml/100 g body weight, the medicament solutions used in this test had the same concentrations as those used on mice.
The apparatus was the same as that in the […].
The rats were fasted for 4 hours, put in a round glass tank (ø 18 cm×h 40 cm, with water of 15 cm depth and at a temperature of 25° C.), and were allowed to swim for 15 min. One tank accommodated one rat at a time. The tank was refilled with clean water for another rat after one rat finished swimming. The rats were dried with a hot-air blower after swimming.
The forty rats were divided into 4 groups, each of which has 10 rats, according to the Excel random grouping.
The medicaments were correspondingly administered 1 ml/100 g body weight by gavage, once a day, to the animals in each test group for 14 successive days. The rat swimming test was performed one hour later after the last administration.
The data was given as “average±standard deviation” (x±s). One-way analysis of variance (ANOVA) was used for data difference statistics. Differences among the groups were determined by P<0.05.

[3] = rats, oral 20 mg/kg, individual rats 1-6, 20 mg/kg

**Q.** What does the source list for Cc1ccc(Sc2ccccc2N2CCNCC2)c(C)c1 [YY, 1-[2-(2,4-dimethyl-phenylsulfanyl)-phenyl]piperazine]?
**A.** concentration at 0.5 h ([1]; both sexes, Sprague-Dawley, rat, plasma, oral, 20 mg/kg, 20 mg/kg oral, 0.5 h, mean of 6 rats, read-out: Concentrations in Plasma of Rats after Oral Administration, Mean ± SD): 54.9 ± 16.8 ng/mL; concentration at 1 h ([1]; both sexes, Sprague-Dawley, rat, plasma, oral, 20 mg/kg, 20 mg/kg oral, 1 h, mean of 6 rats, read-out: Concentrations in Plasma of Rats after Oral Administration, Mean ± SD): 82.6 ± 23.6 ng/mL; concentration at 1.5 h ([1]; both sexes, Sprague-Dawley, rat, plasma, oral, 20 mg/kg, 20 mg/kg oral, 1.5 h, mean of 6 rats, read-out: Concentrations in Plasma of Rats after Oral Administration, Mean ± SD): 89.9 ± 33.7 ng/mL; concentration at 2 h ([1]; both sexes, Sprague-Dawley, rat, plasma, oral, 20 mg/kg, 20 mg/kg oral, 2 h, mean of 6 rats, read-out: Concentrations in Plasma of Rats after Oral Administration, Mean ± SD): 92.1 ± 45.7 ng/mL; concentration at 3 h ([1]; both sexes, Sprague-Dawley, rat, plasma, oral, 20 mg/kg, 20 mg/kg oral, 3 h, mean of 6 rats, read-out: Concentrations in Plasma of Rats after Oral Administration, Mean ± SD): 59.9 ± 30.7 ng/mL; concentration at 4 h ([1]; both sexes, Sprague-Dawley, rat, plasma, oral, 20 mg/kg, 20 mg/kg oral, 4 h, mean of 6 rats, read-out: Concentrations in Plasma of Rats after Oral Administration, Mean ± SD): 53.4 ± 21.6 ng/mL; concentration at 6 h ([1]; both sexes, Sprague-Dawley, rat, plasma, oral, 20 mg/kg, 20 mg/kg oral, 6 h, mean of 6 rats, read-out: Concentrations in Plasma of Rats after Oral Administration, Mean ± SD): 36.4 ± 11.7 ng/mL; concentration at 8 h ([1]; both sexes, Sprague-Dawley, rat, plasma, oral, 20 mg/kg, 20 mg/kg oral, 8 h, mean of 6 rats, read-out: Concentrations in Plasma of Rats after Oral Administration, Mean ± SD): 18.1 ± 5.3 ng/mL; concentration at 10 h ([1]; both sexes, Sprague-Dawley, rat, plasma, oral, 20 mg/kg, 20 mg/kg oral, 10 h, mean of 6 rats, read-out: Concentrations in Plasma of Rats after Oral Administration, Mean ± SD): 9.79 ± 2.62 ng/mL; concentration at 12 h ([1]; both sexes, Sprague-Dawley, rat, plasma, oral, 20 mg/kg, 20 mg/kg oral, 12 h, mean of 6 rats, read-out: Concentrations in Plasma of Rats after Oral Administration, Mean ± SD): 5.12 ± 1.67 ng/mL; concentration at 14 h ([1]; both sexes, Sprague-Dawley, rat, plasma, oral, 20 mg/kg, 20 mg/kg oral, 14 h, mean of 6 rats, read-out: Concentrations in Plasma of Rats after Oral Administration, Mean ± SD): 4.08 ± 1.66 ng/mL; concentration at 24 h ([1]; both sexes, Sprague-Dawley, rat, plasma, oral, 20 mg/kg, 20 mg/kg oral, 24 h, mean of 6 rats, read-out: Concentrations in Plasma of Rats after Oral Administration, Mean ± SD): 0.64 ± 0.32 ng/mL; bioavailability ([1]; both sexes, Sprague-Dawley, rat, plasma, oral, 20 mg/kg, rats, oral 20 mg/kg vs iv 2 mg/kg): 7.51 ± 2.77%; AUC(0-t) ([1]; both sexes, Sprague-Dawley, rat, plasma, po, 20 mg/kg, gavage administration of 20 mg/kg, rats, read-out: AUC0-t in the rats' plasma): 489 ± 180 ng·h/mL; bioavailability ([1]; both sexes, Sprague-Dawley, rat, plasma, po, 20 mg/kg, rats, oral 20 mg/kg vs iv 2 mg/kg): 7.51 ± 2.77%; F % ([1]; rats, oral 20 mg/kg vs iv 2 mg/kg, individual rats 1-6): 12.83% and 6.36% and 7.40% and 7.17% and 6.55% and 4.75%; AUC0-t (area under the plasma concentration-time curve from zero to the last sampling time) [1, 3]: 836.1 ng·h/mL and 415.8 ng·h/mL and 480.4 ng·h/mL and 467.8 ng·h/mL and 427.0 ng·h/mL and 309.2 ng·h/mL; AUC0-∞ [1, 3]: 839.3 ng·h/mL and 416.2 ng·h/mL and 484 ng·h/mL and 469.3 ng·h/mL and 428.7 ng·h/mL and 310.6 ng·h/mL; Cmax [1, 3]: 182.0 ng/mL and 85.2 ng/mL and 91.8 ng/mL and 89.2 ng/mL and 93.2 ng/mL and 56.4 ng/mL; MRT0-∞ [1, 3]: 4.65 h and 4.73 h and 4.67 h and 4.60 h and 5.35 h; t1/2 [1, 3]: 2.20 h and 3.50 h and 2.83 h and 3.06 h and 3.10 h; effect on length of time that the rats stopped swimming vs blank control ([2]; 1.5 mg/kg gavage, 14 days): did not shorten; Duration without Move within 5 min ([2]; rats swimming, gavage 14 days, 1.5 mg/kg, n = 10, x ± s): 267.8 ± 27.0 s
